Laboratory results from patent publication US20240350542A1, “ANTICANCER T CELL THERAPY PRODUCT-ASSISTING COMPOSITION COMPRISING DEPLETING ANTI-CD4 MONOCLONAL ANTIBODY AND USE THEREOF” (NATIONAL CANCER CENTER, priority 2018, published 2024).
Read-outs that look alike come from different tables or passages of the source.

Assays:
[1] = system: B16-F10 melanoma cancer cells
Description: (§1) Specifically, 2×10^5 B16-F10 melanoma cancer cells were subcutaneously injected into the dorsal area of a C57BL/6 mouse to induce the formation of cancer tissue. At the same time, aPmel-1 was prepared in the same manner as in Example 1. aPmel-1 and IL-2 were administered in the same manner as in Example 1, and transient immunodeficiency was induced by intraperitoneally injecting 150, 200 and 300 mg/kg of cyclophosphamide (CTX) two days before the aPmel-1 administration. In addition, to confirm a period of maintaining transient immunodeficiency according to the dose of CTX, 150, 200 and 300 mg/kg of CTX was intraperitoneally injected into C57BL/6 mice once, and an inguinal lymph node and the spleen of the mice were collected, followed by single cell suspension and then counting a cell number.

[2] = system: inguinal lymph node and spleen cell number
Description: as §1

O=P1(N(CCCl)CCCl)NCCCO1 (stereo not drawn) [CTX, cyclophosphamide]
toxicity to the mouse ([1]; 300 mg/kg or more of CTX): can be toxic to the mouse, leading to the death of the mouse | survival of mouse ([1]; C57BL/6, 150 mg/kg CTX only): up to 35 days | growth of cancer tissue ([1]; C57BL/6, 150 mg/kg CTX only, vs NT): cancer tissue grew more slowly | growth of cancer tissue ([1]; C57BL/6, 200 mg/kg CTX only): slower growth of cancer tissue than the 150 mg/kg CTX-administered mouse | survival of mouse ([1]; C57BL/6, 200 mg/kg CTX only): up to 45 days | growth of cancer tissue ([1]; C57BL/6, 300 mg/kg CTX only): slower growth of cancer tissue than when 200 mg/kg CTX-administered mouse | survival of mouse ([1]; C57BL/6, 300 mg/kg CTX only): up to 60 days | transient immunodeficiency effect ([2]; C57BL/6, 150 mg/kg CTX): insignificant | period the immunodeficiency effect was maintained ([2]; C57BL/6, 200 mg/kg CTX intraperitoneally once): approximately 2 weeks
